Measured values as given in the supplement of paper PMC4862054.

What was measured:
Assay in all cases: normalised response (% of control), CellTiter-Glo; higher = more viable cells (100 = DMSO, 0 = benzethonium chloride kill control)
Settings in all cases: incubation time: 72 h
HCC1599 = system: HCC1599
How it was run: (§1)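 Compound was dispensed into 384-well plates at 5 concentrations in 10-fold steps spanning a 10,000-fold range specific to that compound. Breast cancer cell lines were added as 20 µl suspension and left for 72 h before CellTox Green fluorescence (485/520 nm) and then CellTiter-Glo luminescence, read after 10 min at room temperature. Each reported value is the normalised signal at one concentration, with 0.1 % DMSO set at 100 and a positive kill control at 0 on each plate.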

CAL-51 = system: CAL-51
How it was run: as §1

HCC1937 = system: HCC1937
How it was run: as §1

HCC1143 = system: HCC1143
How it was run: as §1

MDA-MB-453 = system: MDA-MB-453
How it was run: as §1

DU-4475 = system: DU-4475
How it was run: as §1

HDQ-P1 = system: HDQ-P1
How it was run: as §1

SK-BR-3 = system: SK-BR-3
How it was run: as §1

BT-474 = system: BT-474
How it was run: as §1

CAL-120 = system: CAL-120
How it was run: as §1

Hs578T = system: Hs578T
How it was run: as §1

MFM-223 = system: MFM-223
How it was run: as §1

CAL-85-1 = system: CAL-85-1
How it was run: as §1

MDA-MB-468 = system: MDA-MB-468
How it was run: as §1

MCF-10A = system: MCF-10A
How it was run: as §1

MDA-MB-436 = system: MDA-MB-436
How it was run: as §1

BT-549 = system: BT-549
How it was run: as §1

CAL-148 = system: CAL-148
How it was run: as §1

MDA-MB-231 = system: MDA-MB-231
How it was run: as §1

| Structure (SMILES) | normalised response (HCC1599) [%] | normalised response (CAL-51) [%] | normalised response (HCC1937) [%] | normalised response (HCC1143) [%] | normalised response (MDA-MB-453) [%] | normalised response (DU-4475) [%] | normalised response (HDQ-P1) [%] | normalised response (SK-BR-3) [%] | normalised response (BT-474) [%] | normalised response (CAL-120) [%] | normalised response (Hs578T) [%] | normalised response (MFM-223) [%] | normalised response (CAL-85-1) [%] | normalised response (MDA-MB-468) [%] | normalised response (MCF-10A) [%] | normalised response (MDA-MB-436) [%] | normalised response (BT-549) [%] | normalised response (CAL-148) [%] | normalised response (MDA-MB-231) [%] |
| --- | --- | --- | --- | --- | --- | --- | --- | --- | --- | --- | --- | --- | --- | --- | --- | --- | --- | --- | --- |
| COc1cccc2cc(-c3nc([C@H]4CC[C@H](C(=O)O)CC4)n4ncnc(N)c34)[nH]c12 [OSI-027] (1000 nM) | 118 | 92.4 | 81.2 | 90.8 | 71.2 | 89.3 | 66.1 | 48.2 | 79.6 | 77.3 | 96.6 | 72.5 | 76.2 | 84.2 | 87 | 80.2 | 74.6 | 93.1 | 85.5 |
| OC[C@H]1O[C@@H](n2cnc3c2N=CNC[C@H]3O)C[C@@H]1O [Pentostatin] (1000 nM) | 103 | 92.4 | 100 | 104 | 97.8 | 98 | 94.1 | 104 | 93.9 | 95.6 | 105 | 103 | 100 | 99.4 | 105 | 102 | 95.7 | 94.4 | 108 |
| N#CC[C@H](C1CCCC1)n1cc(-c2ncnc3[nH]ccc23)cn1 [Ruxolitinib] (1000 nM) | 100 | 121 | 103 | 92.9 | 84.3 | 99.6 | 98.2 | 90.2 | 90.2 | 89.4 | 105 | 91 | 95.8 | 90.8 | 80.6 | 101 | 96.3 | 99.9 | 104 |
| C=CC[C@@H]1/C=C(\C)C[C@H](C)C[C@H](OC)[C@H]2O[C@@](O)(C(=O)C(=O)N3CCCC[C@H]3C(=O)O[C@H](/C(C)=C/[C@@H]3CC[C@@H](O)[C@H](OC)C3)[C@H](C)[C@@H](O)CC1=O)[C@H](C)C[C@@H]2OC [Tacrolimus] (1000 nM) | 121 | 109 | 101 | 98.4 | 108 | 100 | 105 | 88.5 | 97.4 | 101 | 96 | 101 | 95.1 | 105 | 102 | 99.7 | 102 | 96.6 | 106 |
| C=CCNC1=C2C[C@@H](C)C[C@H](OC)[C@H](O)[C@@H](C)/C=C(\C)[C@H](OC(N)=O)[C@@H](OC)/C=C\C=C(/C)C(=O)NC(=CC1=O)C2=O [Tanespimycin] (1000 nM) | 57.8 | 26 | 29 | 36 | 28.9 | 0.04 | 22.8 | 38.5 | 21.1 | 51.8 | 38.2 | 39.2 | 27.9 | 42.3 | 14.6 | 43.3 | 33.4 | 24.1 | 23.5 |
| C[C@]1(c2nc3c(C(N)=O)cccc3[nH]2)CCCN1 [Veliparib] (1000 nM) | 104 | 72.6 | 101 | 105 | 109 | 98.6 | 102 | 101 | 93.8 | 97 | 105 | 107 | 115 | 104 | 91.3 | 95.4 | 103 | 96.2 | 103 |
| CC[C@]1(O)C[C@@H]2CN(CCc3c([nH]c4ccccc34)[C@@](C(=O)OC)(c3cc4c(cc3OC)N(C)[C@H]3[C@@](O)(C(=O)OC)[C@H](OC(C)=O)[C@]5(CC)C=CCN6CC[C@]43[C@@H]65)C2)C1 [Vinblastine] (100 nM) | 26.6 | 31.6 | 67.7 | 56.6 | 57.5 | 61.9 | 71.9 | 14.2 | 52.3 | 62.9 | 22.4 | 44.1 | 37.2 | 34.7 | 72.4 | 25.3 | 35.6 | 42 | 40.1 |
| CS(=O)(=O)c1ccc(C(=O)Nc2ccc(Cl)c(-c3ccccn3)c2)c(Cl)c1 [Vismodegib] (1000 nM) | 118 | 105 | 95.5 | 89.2 | 89.6 | 98.9 | 98.4 | 86.5 | 90.3 | 90.9 | 101 | 95.2 | 103 | 94.9 | 94.9 | 93.3 | 101 | 98.8 | 95.9 |
